Molecular target: T1, human FXR (Homo sapiens, UniProt Q96RI1)
T1 construct: purchased Cayman
T1 sequence (Q96RI1 1-486): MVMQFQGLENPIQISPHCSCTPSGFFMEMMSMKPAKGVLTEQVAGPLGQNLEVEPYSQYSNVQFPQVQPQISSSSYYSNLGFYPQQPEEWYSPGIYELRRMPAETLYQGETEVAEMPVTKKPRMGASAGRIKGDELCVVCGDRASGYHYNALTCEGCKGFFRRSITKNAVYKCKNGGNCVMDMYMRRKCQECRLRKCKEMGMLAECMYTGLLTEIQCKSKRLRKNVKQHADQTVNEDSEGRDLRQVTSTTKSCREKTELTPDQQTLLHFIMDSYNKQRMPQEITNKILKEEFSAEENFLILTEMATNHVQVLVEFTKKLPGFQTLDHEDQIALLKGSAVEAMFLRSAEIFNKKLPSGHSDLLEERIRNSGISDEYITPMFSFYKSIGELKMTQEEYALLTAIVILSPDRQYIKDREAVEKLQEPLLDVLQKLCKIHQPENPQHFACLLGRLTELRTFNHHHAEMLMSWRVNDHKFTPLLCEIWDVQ
Test: Human FXR antagonist reporter assay
Type: cell-based
Method: FIG. 7 illustrates that coumarin 106 (“C1”, “AIC106”) acts as a potent FXR antagonist. The ability of C1 (AIC106) (10 μM and 30 μM) to inhibit activation of the FXR agonist […] (GW, 150 μM) was interrogated using a commercially available kit (Indigo Biosciences) versus the established natural FXR ligands TUDCA and UDCA (50 μM and 100 μM). Values are fold induction versus untreated controls; ****p<0.01 versus GW; **p<0.05 versus GW.
FIG. 23, panels A-H: FXR modulation enhances HLH-30 expression in human neuronal SH-SY5Y cells. Panel A) Effects of AIC106 on human FXR activity was determined in a mammalian one-hybrid based kit assay by quantifying changes in the luciferase activity of FXR ligand (GW4064, GW) induced treatment. […] Panel B) Protein expression of TFEB, cathepsin-D (CAT-D) and small heterodimer partner-1 (SHP-1) was determined by immunoblot in neuronal SH-SY5Y cells post-24 hours of treatment with AIC106 and DMSO-control. […] Autophagic flux in DMSO-control and AIC106 treated neuronal cells was determined by quantifying levels of autophagosome specific LC3-II protein both in presence and absence of autophagy inhibitor bafliomycin A1 (Baf A, 10 nM). […]
Antagonistic activity of the AIC106 on human FXR was determined using a commercially available FXR Human reporter assay kit (Cayman) according to the supplied manual. […] Luminescence was quantified. […]

How did the “FXR activation elicited by the FXR agonist GW4064” value (C1 10 μM and 30 μM versus TUDCA and UDCA (FIG. 7)) turn out when `O=c1oc2c3c4c(cc2c2c1CCC2)CCCN4CCC3` [C1, 2,3,6,7,10,11-Hexahydro-1H,5H-cyclopenta(3,4)(1)benzopyrano(6,7,8-ij)quinolizin-12(9H)-one] was run?
Its value is “significantly inhibited FXR activation”.

What about the “ligand-induced activation of human FXR” value (FXR ligand GW4064 (FIG. 23, panel A)) of the same compound?
The value was “prevented ligand-induced activation of the human FXR protein”.

— patent publication US12673039B2, “Methods of inducing autophagy using coumarin derivatives and related compounds” (Buck Institute for Research on Aging, priority 2019, dated 2026)
